ChEMBL document CHEMBL5346906, “Discovery of novel tranylcypromine-based derivatives as LSD1 inhibitors for gastric cancer treatment” (Eur J Med Chem, 2023)
Active and inactive are the calls of the source. The calls are words filed in the database; no cut-off is given here.

Columns and labels:
[1] = tested on: MGC-803; test: Induction of apoptosis in human MGC-803 cells assessed as cell death incubated at 8 to 24 micromol/L for 48 hrs measured by Calcein-AM/PI staining analysis; type: functional, cell-based; settings: dose 8-24 µmol/L
[2] = tested on: MGC-803; test: Antiproliferative activity against human MGC-803 cells assessed as reduction in stemness of cells by measuring tumor ball diameter at 0 to 8 uM after 48 hrs measured after 5 days using 3D-spheroid assay; type: functional, cell-based; settings: dose 0-8 µM
[3] = tested on: MGC-803; test: Induction of mitochondrial membrane potential depolarization in human MGC-803 assessed as viable cells measured at 8 micromol/L for 20 mins by JC-1 staining based flow cytometric analysis (reference value: 0.40%); type: functional; settings: MGC-803, 20 min, dose 8 µmol/L, read-out: Activity
[4] = tested on: MGC-803; test: Induction of mitochondrial membrane potential depolarization in human MGC-803 assessed as late apoptotic cells measured at 8 micromol/L for 20 mins by JC-1 staining based flow cytometric analysis (reference value: 94.98%); type: functional; settings: dose 8 µmol/L, at 8 µM
[5] = tested on: MGC-803; test: Induction of apoptosis in human MGC-803 cells assessed as decrease in anti-apoptotic c-IAP1 expression at 8 to 24 micromol/L; type: functional, cell-based; settings: dose 8-24 µmol/L
[6] = tested on: MGC-803; test: Induction of apoptosis in human MGC-803 cells assessed as decrease in capase9 expression at 8 to 24 micromol/L; type: functional, cell-based; settings: dose 8-24 µmol/L
[7] = tested on: MGC-803; test: Induction of apoptosis in human MGC-803 cells assessed as early apoptotic cells at 24 micromol/L for 48 hrs by annexinV-FITC/PI staining based flow cytometric analysis (reference value: 2.92%); type: functional; settings: dose 24 µmol/L, at 24 µM
[8] = tested on: MGC-803; test: Inhibition of cell migration in human MGC-803 cells assessed as scratch width decrease treated at 2 to 6 micromol/L for 48 hrs measured by transwell assay based crystal violet staining analysis; type: functional; settings: dose 2-6 µmol/L
[9] = tested on: MGC-803; test: Induction of mitochondrial membrane potential depolarization in human MGC-803 assessed as necrotic cells measured at 24 micromol/L for 20 mins by JC-1 staining based flow cytometric analysis (reference value: 0.00%); type: functional; settings: dose 24 µmol/L, at 24 µM
[10] = tested on: MGC-803; test: Induction of apoptosis in human MGC-803 cells assessed as necrotic cells at 16 micromol/L for 48 hrs by annexinV-FITC/PI staining based flow cytometric analysis (reference value: 0.22%); type: functional; settings: dose 16 µmol/L, at 16 µM
[11] = biological target: T1, Lysine-specific histone demethylase 1A (Homo sapiens, UniProt O60341); test: Inhibition of LSD1 in human MGC-803 cells assessed as increase in dimethylation of H3K4; type: cell-based; settings: dose 0-24 µmol/L
[12] = biological target: T1, Lysine-specific histone demethylase 1A; test: Binding affinity to LSD1 in human MGC-803 cells assessed as thermal stability measured at 100 uM preincubated for 30 mins and incubated at 42 to 60 degreeC for 3 mins followed by cooled for 180 secs cycle repeated 3 times by CETSA based Western blotting analysis; type: cell-based; settings: time 48.0 min
[13] = tested on: MGC-803; test: Induction of cell differentiation in human MGC-803 cells assessed as increase in CD86 level at 24 micromol/L incubated for 48 hrs by flow cytometric analysis (reference value: 60%); type: functional; settings: dose 24 µmol/L, at 24 µM
[14] = biological target: T1, Lysine-specific histone demethylase 1A; test: Inhibition of LSD1 in human MGC-803 cells assessed as increase in dimethylation of H3K9; type: cell-based; settings: dose 0-24 µmol/L
[15] = tested on: MGC-803; test: Induction of mitochondrial membrane potential depolarization in human MGC-803 assessed as late apoptotic cells measured at 16 micromol/L for 20 mins by JC-1 staining based flow cytometric analysis (reference value: 94.98%); type: functional; settings: dose 16 µmol/L, at 16 µM
[16] = tested on: MGC-803; test: Induction of cell differentiation in human MGC-803 cells assessed as decrease in nucleoplasmic ratio of cells incubated for 6 days measured by Giemsa staining method; type: functional, cell-based; settings: dose 2-4 µmol/L, time 6.0 day
[17] = tested on: MGC-803; test: Induction of mitochondrial membrane potential depolarization in human MGC-803 assessed as viable cells measured at 16 micromol/L for 20 mins by JC-1 staining based flow cytometric analysis (reference value: 0.40%); type: functional; settings: MGC-803, 20 min, dose 16 µmol/L, read-out: Activity
[18] = tested on: MGC-803; test: Induction of apoptosis in human MGC-803 cells assessed as viable cells at 16 micromol/L for 48 hrs by annexinV-FITC/PI staining based flow cytometric analysis (reference value: 95.54%); type: functional; settings: MGC-803, 48 h, dose 16 µmol/L, read-out: Activity
[19] = tested on: MGC-803; test: Induction of mitochondrial membrane potential depolarization in human MGC-803 assessed as necrotic cells measured at 16 micromol/L for 20 mins by JC-1 staining based flow cytometric analysis (reference value: 0.00%); type: functional; settings: dose 16 µmol/L, at 16 µM
[20] = tested on: MGC-803; test: Induction of apoptosis in human MGC-803 cells assessed as late apoptotic cells at 16 micromol/L for 48 hrs by annexinV-FITC/PI staining based flow cytometric analysis (reference value: 1.32%); type: functional; settings: dose 16 µmol/L, at 16 µM
[21] = tested on: MGC-803; test: Induction of apoptosis in human MGC-803 cells assessed as early apoptotic cells at 16 micromol/L for 48 hrs by annexinV-FITC/PI staining based flow cytometric analysis (reference value: 2.92%); type: functional; settings: dose 16 µmol/L, at 16 µM
[22] = tested on: MGC-803; test: Induction of apoptosis in human MGC-803 cells assessed as late apoptotic cells at 8 micromol/L for 48 hrs by annexinV-FITC/PI staining based flow cytometric analysis (reference value: 1.32%); type: functional; settings: dose 8 µmol/L, at 8 µM
[23] = tested on: KYSE-450; test: Antiproliferative activity against human KYSE-450 cells incubated for 48 hrs measured by MTT assay; type: functional, cell-based; settings: KYSE-450, 48 h
[24] = tested on: MGC-803; test: Induction of mitochondrial membrane potential depolarization in human MGC-803 assessed as early apoptotic cells measured at 8 micromol/L for 20 mins by JC-1 staining based flow cytometric analysis (reference value: 4.52%); type: functional; settings: dose 8 µmol/L, at 8 µM
[25] = tested on: MGC-803; test: Induction of cell differentiation in human MGC-803 cells assessed as increase in CD86 level at 8 micromol/L incubated for 48 hrs by flow cytometric analysis (reference value: 60%); type: functional; settings: dose 8 µmol/L, at 8 µM
[26] = tested on: MGC-803; test: Induction of apoptosis in human MGC-803 cells assessed as late apoptotic cells at 24 micromol/L for 48 hrs by annexinV-FITC/PI staining based flow cytometric analysis (reference value: 1.32%); type: functional; settings: dose 24 µmol/L, at 24 µM
[27] = tested on: MGC-803; test: Induction of mitochondrial membrane potential depolarization in human MGC-803 assessed as early apoptotic cells measured at 24 micromol/L for 20 mins by JC-1 staining based flow cytometric analysis (reference value: 4.52%); type: functional; settings: dose 24 µmol/L, at 24 µM
[28] = tested on: HCT-116; test: Antiproliferative activity against human HCT-116 cells incubated for 48 hrs measured by MTT assay; type: functional, cell-based; settings: HCT-116, 48 h
[29] = tested on: MGC-803; test: Antiproliferative activity against human MGC-803 cells assessed as reduction in stemness of cells by measuring tumor ball diameter at 0 to 8 uM after 48 hrs measured after 10 days using 3D-spheroid assay; type: functional, cell-based; settings: dose 0-8 µM
[30] = biological target: T1, Lysine-specific histone demethylase 1A; test: Inhibition of LSD1 in human MGC-803 cells assessed as increase in methylation of H3K4 at 24 micromol/L; type: cell-based; settings: dose 24.0 µmol/L
[31] = tested on: MGC-803; test: Induction of apoptosis in human MGC-803 cells assessed as viable cells at 24 micromol/L for 48 hrs by annexinV-FITC/PI staining based flow cytometric analysis (reference value: 95.54%); type: functional; settings: MGC-803, 48 h, dose 24 µmol/L, read-out: Activity
[32] = tested on: MGC-803; test: Induction of apoptosis in human MGC-803 cells assessed as decrease in capase3 expression at 8 to 24 micromol/L; type: functional, cell-based; settings: dose 8-24 µmol/L

SMILES: O=C(c1cccc(CN[C@@H]2C[C@H]2c2ccc(F)c(F)c2)c1)N1CCN(c2ccc(Cl)c(Cl)c2)CC1
- Activity [1]: Active
- Activity [2]: inactive
- viability at 8 µM [3]: 0.52%
- Activity [4]: 93.18%
- Activity [5]: Active
- Activity [6]: Active
- Activity [7]: 37.89%
- inhibition [8]: Active
- Activity [9]: 0.12%
- Activity [10]: 0.35%
- inhibition [11]: Dose-Dependent Effect
- Activity [12]: Active
- Activity [13]: 74.6%
- inhibition [14]: Dose-Dependent Effect
- Activity [15]: 81%
- Activity [16]: Dose-Dependent Effect
- viability at 16 µM [17]: 1.34%
- viability at 16 µM [18]: 57.5%
- Activity [19]: 0.02%
- Activity [20]: 10.43%
- Activity [21]: 31.69%
- Activity [22]: 2.76%
- IC50 [23]: 22.8 µM
- Activity [24]: 6.3%
- Activity [25]: 64.13%
- Activity [26]: 9.98%
- Activity [27]: 29.22%
- IC50 [28]: 16.3 µM
- Activity [29]: Active
- inhibition [30]: Active
- viability at 24 µM [31]: 51.8%
- Activity [32]: Active
